The text below walks through data of US20030139397A1, “Arthropodicidal carboxanilides” (priority 2002, published 2003).

The test system of the series is tobacco budworm (Heliothis virescens). The settings on record: in vivo. How it is done: See Index Table A for compound descriptions. The following abbreviations are used in the Index Table that follows: n is normal, i is iso, Pr […], and Ph is phenyl. The abbreviation “Ex.” stands for “Example” and is followed by a number indicating in which example the compound is prepared.
Test units, each consisting of a H.I.S. (high impact styrene) tray with 16 cells were prepared. Wet filter paper and approximately 8 cm^2 of lima bean leaf were placed into twelve of the cells. A 0.5-cm layer of wheat germ diet was placed into the four remaining cells. Fifteen to twenty third-instar larvae of fall armyworm (Spodoptera frugiperda) were placed into a 230-mL (8-ounce) plastic cup. Solutions of each of the test compounds in 75:25 acetone-distilled water solvent were sprayed into the tray and cup. Spraying was accomplished by passing the tray and cup on a conveyer belt directly beneath a flat fan hydraulic nozzle which discharged the spray at a rate of 0.138 kilograms of active ingredient per hectare (about 0.13 pounds per acre) at 207 kPa (30 p.s.i.). The insects were transferred from the 230-mL cup to the H.I.S. tray (one insect per cell). The trays were covered and held at 27° C. and 50% relative humidity for 48 hours, after which time readings were taken on the twelve cells with lima bean leaves. The four remaining cells were read at 6-8 days for delayed toxicity.
The test procedure of TEST A was repeated for determining efficacy against third-instar larvae of the tobacco budworm (Heliothis virescens) except that three 230-mL (8-ounce) plastic cups with wheat germ diet were used in place of the H.I.S. tray, with each cup pre-infected with five third-instar larvae.

For the molecule `CCCC12Cc3cc(Cl)ccc3C1=NC(C(=O)Nc1ccc(Br)cc1)=NN2` (stereo not drawn) [Compound 2], the mortality levels is not below 80%.
`CCCC12Cc3cc(Cl)ccc3C1=NC(C(=O)Nc1ccc(C(F)(F)F)cc1)=NN2C` (stereo not drawn) [Compound 5] came in with a mortality levels not below 80%.
Turning to `CCCC12Cc3cc(Cl)ccc3C1=NC(C(=O)Nc1ccc(OC(F)(F)F)cc1)=NN2C` (stereo not drawn) [Compound 6], the mortality levels is recorded as not below 80%.
`CCCC12Cc3cc(C(F)(F)F)ccc3C1=NC(C(=O)Nc1ccc(C(F)(F)F)cc1)=NN2C` (stereo not drawn) [Compound 7] returned a mortality levels not below 80%.
As for `CCCC12Cc3cc(C(F)(F)F)ccc3C1=NC(C(=O)Nc1ccc(OC(F)(F)F)cc1)=NN2C` (stereo not drawn) [Compound 8], the mortality levels is reported as not below 80%.
With `CN1N=C(C(=O)Nc2ccc(C(F)(F)F)cc2)N=C2c3ccc(C(F)(F)F)cc3CC21C` (stereo not drawn) [Compound 9], the mortality levels is recorded as not below 80%.
Molecule `CN1N=C(C(=O)Nc2ccc(OC(F)(F)F)cc2)N=C2c3ccc(C(F)(F)F)cc3CC21C` (stereo not drawn) [Compound 10] had a mortality levels not below 80%.
For `CCCC12Cc3cc(C(F)(F)F)ccc3C1=NC(C(=O)Nc1ccc(C(F)(F)F)cc1)=NN2C(C)=O` (stereo not drawn) [Compound 11], the mortality levels is not below 80%.
`CCCC12Cc3cc(C(F)(F)F)ccc3C1=NC(C(=O)Nc1ccc(OC(F)(F)F)cc1)=NN2C(C)=O` (stereo not drawn) [Compound 12] gave a mortality levels not below 80%.
On to `O=C(Nc1ccc(OC(F)(F)F)cc1)C1=NNC2(c3ccc(F)cc3)Cc3cc(F)ccc3C2=N1` (stereo not drawn) [Compound 13], for which the mortality levels is not below 80%.
For `CC12Cc3cc(F)ccc3C1=NC(C(=O)Nc1ccc(OC(F)(F)F)cc1)=NN2` (stereo not drawn) [Compound 14], the mortality levels is not below 80%.
The same measure for `CC(C)C12Cc3cc(Cl)ccc3C1=NC(C(=O)Nc1ccc(OC(F)(F)F)cc1)=NN2` (stereo not drawn) [Compound 15]: not below 80%; for `COC(=O)N1N=C(C(=O)Nc2ccc(OC(F)(F)F)cc2)N=C2c3ccc(F)cc3CC21c1ccc(F)cc1` (stereo not drawn) [Compound 16]: not below 80%.
In the case of `CN1N=C(C(=O)Nc2ccc(OC(F)(F)F)cc2)N=C2c3ccc(F)cc3CC21C` (stereo not drawn) [Compound 17], the mortality levels is not below 80%.
In the case of `CN1N=C(C(=O)Nc2ccc(C(F)(F)F)cc2)N=C2c3ccc(F)cc3CC21C` (stereo not drawn) [Compound 19], the mortality levels was not below 80%.
For `CCCC12Cc3cc(Cl)ccc3C1=NC(C(=O)Nc1ccc(SC(F)(F)F)cc1)=NN2` (stereo not drawn) [Compound 20], the mortality levels was not below 80%.
In the case of `CCCC12Cc3cc(C(F)(F)F)ccc3C1=NC(C(=O)Nc1ccc(SC(F)(F)F)cc1)=NN2` (stereo not drawn) [Compound 21], the mortality levels is not below 80%.
Consider `O=C(Nc1ccc(SC(F)(F)F)cc1)C1=NNC2(c3ccc(F)cc3)Cc3cc(F)ccc3C2=N1` (stereo not drawn) [Compound 22], for which the mortality levels is not below 80%.
